Measurements taken from PubChem BioAssay (NCI).
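Protocol summary: plate cells (96-well), add compound at 5 concentrations, incubate 48 h, interpolate endpoints linearly. TGI: concentration producing complete growth inhibition.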

What was measured:
Assay in all cases: growth of human tumour cells (NCI), 48 h
[1] = tested on: OVCAR-5 ovarian
[2] = tested on: NCI-H226 lung
[3] = tested on: ACHN renal
[4] = tested on: SK-MEL-28 melanoma
[5] = tested on: NCI/ADR-RES ovarian
[6] = tested on: SNB-19 CNS
[7] = tested on: SK-OV-3 ovarian
[8] = tested on: HCC-2998 colon
[9] = tested on: DU-145 prostate
[10] = tested on: U251 CNS

**Q.** Which results are given for `CCN(CC)Cc1cc(N=Nc2c(O)ccc3c(N=Nc4ccc(O)c(CN(CC)CC)c4)c(O)ccc23)ccc1O`?
**A.** TGI [1]: > 44.9 µM; TGI [2]: 22.7 µM; TGI [3]: 7.71 µM; TGI [4]: 20 µM; TGI [5]: 33 µM; TGI [6]: 15.6 µM; TGI [7]: 6.85 µM; TGI [8]: 5.18 µM; TGI [9]: 9.55 µM; TGI [10]: 15.5 µM

**Q.** Which results are given for `CC(=O)C1=C(C)N(c2ccccc2)C2(O)C3=C(C(=O)c4ccccc4C3=O)C(O)=CC12Cl` (stereo not given)?
**A.** TGI [1]: > 100 µM; TGI [2]: 55.7 µM; TGI [3]: 33.2 µM; TGI [4]: 23.6 µM; TGI [5]: > 100 µM; TGI [6]: 23.5 µM; TGI [7]: > 100 µM; TGI [8]: 25.9 µM; TGI [9]: > 100 µM; TGI [10]: 50.1 µM

**Q.** Which TGI [1] does the source give for `CC(C)(C)OC(=O)NC(CSCc1ccc(C(=O)c2ccccc2)cc1)C(=O)N1CCN(CCCCN2c3ccccc3Sc3cc(N=[N+]=[N-])ccc32)CC1` (stereo not given) here?
**A.** > 100 µM

**Q.** And the TGI [2]?
**A.** > 100 µM

**Q.** What about the TGI [3] of the same compound?
**A.** > 100 µM

**Q.** What about the TGI [4] of the same compound?
**A.** > 100 µM

**Q.** And the TGI [5]?
**A.** > 100 µM

**Q.** And the TGI [6]?
**A.** > 100 µM

**Q.** And the TGI [7]?
**A.** > 100 µM

**Q.** What about the TGI [8] of the same compound?
**A.** > 100 µM

**Q.** What about the TGI [9] of the same compound?
**A.** > 100 µM

**Q.** What about the TGI [10] of the same compound?
**A.** > 100 µM

**Q.** `Cc1ccc([N+](=O)[O-])cc1S(=O)(=O)Nc1ccc(C2=NN(S(=O)(=O)c3cc([N+](=O)[O-])ccc3C)C(c3cccs3)C2)cc1` (stereo not given) was tested. Which TGI [1] did it give?
**A.** > 100 µM

**Q.** What about the TGI [2] of the same compound?
**A.** > 100 µM

**Q.** And the TGI [3]?
**A.** > 100 µM

**Q.** What about the TGI [4] of the same compound?
**A.** > 100 µM

**Q.** And the TGI [5]?
**A.** > 100 µM

**Q.** What about the TGI [6] of the same compound?
**A.** > 100 µM

**Q.** What about the TGI [7] of the same compound?
**A.** > 100 µM

**Q.** What about the TGI [8] of the same compound?
**A.** 56.6 µM

**Q.** And the TGI [9]?
**A.** > 100 µM

**Q.** And the TGI [10]?
**A.** > 100 µM

**Q.** For `N=C1OC(CN2CCN(c3ccccc3)CC2)CN1C(=O)Nc1ccccc1` (stereo not given), which TGI [1] is on record?
**A.** > 100 µM

**Q.** And the TGI [2]?
**A.** > 100 µM

**Q.** What about the TGI [3] of the same compound?
**A.** > 100 µM

**Q.** And the TGI [4]?
**A.** > 100 µM

**Q.** What about the TGI [5] of the same compound?
**A.** > 100 µM

**Q.** What about the TGI [6] of the same compound?
**A.** > 100 µM

**Q.** And the TGI [7]?
**A.** > 100 µM

**Q.** And the TGI [8]?
**A.** > 100 µM

**Q.** And the TGI [9]?
**A.** > 100 µM

**Q.** And the TGI [10]?
**A.** > 100 µM

**Q.** `COc1cc(/C=C/C(=O)CC(=O)/C=C/c2cc(C)c(O)c(OC)c2)cc(C)c1O` was tested. Which TGI [1] did it give?
**A.** > 100 µM

**Q.** And the TGI [2]?
**A.** > 100 µM

**Q.** What about the TGI [3] of the same compound?
**A.** > 100 µM

**Q.** What about the TGI [4] of the same compound?
**A.** > 100 µM

**Q.** And the TGI [5]?
**A.** > 100 µM

**Q.** What about the TGI [6] of the same compound?
**A.** > 100 µM

**Q.** What about the TGI [7] of the same compound?
**A.** > 100 µM

**Q.** And the TGI [8]?
**A.** > 100 µM

**Q.** And the TGI [9]?
**A.** > 100 µM

**Q.** What about the TGI [10] of the same compound?
**A.** > 100 µM

**Q.** What does the source list for `COc1cc(/C=C2\C(=O)N(c3cccc(NC(C)=O)c3)C(c3ccccc3)S2(=O)=O)cc(OC)c1OC` (stereo not given)?
**A.** TGI [1]: > 100 µM; TGI [2]: > 100 µM; TGI [3]: > 100 µM; TGI [4]: > 100 µM; TGI [5]: > 100 µM; TGI [6]: > 100 µM; TGI [7]: > 100 µM; TGI [8]: > 100 µM; TGI [9]: > 100 µM; TGI [10]: > 100 µM

**Q.** What does the source list for `Nc1cc(C2CCCc3c2[nH]c2ccccc32)ccc1O` (stereo not given)?
**A.** TGI [1]: > 100 µM; TGI [2]: > 100 µM; TGI [3]: > 100 µM; TGI [4]: > 100 µM; TGI [5]: > 100 µM; TGI [6]: > 100 µM; TGI [7]: > 100 µM; TGI [8]: > 100 µM; TGI [9]: > 100 µM; TGI [10]: > 100 µM

**Q.** Which TGI [1] does the source give for `N=c1oc2cc(O)ccc2cc1C(=O)Nc1ccccn1` here?
**A.** > 100 µM

**Q.** What about the TGI [2] of the same compound?
**A.** > 100 µM

**Q.** And the TGI [3]?
**A.** > 100 µM

**Q.** And the TGI [4]?
**A.** > 100 µM

**Q.** And the TGI [5]?
**A.** > 100 µM

**Q.** What about the TGI [6] of the same compound?
**A.** > 100 µM

**Q.** And the TGI [7]?
**A.** > 100 µM

**Q.** And the TGI [8]?
**A.** > 100 µM

**Q.** And the TGI [9]?
**A.** 61 µM

**Q.** What about the TGI [10] of the same compound?
**A.** > 100 µM

**Q.** Which TGI [1] does the source give for `CN1C/C(=C\c2cccs2)C2=NN(c3ccccc3)C(c3cccs3)C2C1` (stereo not given) here?
**A.** > 100 µM

**Q.** What about the TGI [2] of the same compound?
**A.** > 100 µM

**Q.** And the TGI [3]?
**A.** > 100 µM

**Q.** What about the TGI [4] of the same compound?
**A.** > 100 µM

**Q.** And the TGI [5]?
**A.** > 100 µM

**Q.** What about the TGI [6] of the same compound?
**A.** > 100 µM

**Q.** And the TGI [7]?
**A.** > 100 µM

**Q.** What about the TGI [8] of the same compound?
**A.** > 100 µM

**Q.** And the TGI [9]?
**A.** > 58.2 µM

**Q.** And the TGI [10]?
**A.** > 100 µM

**Q.** Which TGI [1] does the source give for `O=C(O)c1ccc2c(O)c(O)ccc2c1` here?
**A.** 57.5 µM

**Q.** What about the TGI [2] of the same compound?
**A.** 44.3 µM

**Q.** And the TGI [3]?
**A.** 29.3 µM

**Q.** And the TGI [4]?
**A.** > 100 µM

**Q.** And the TGI [5]?
**A.** 55.3 µM

**Q.** What about the TGI [6] of the same compound?
**A.** 36.1 µM

**Q.** And the TGI [7]?
**A.** > 72.5 µM

**Q.** And the TGI [8]?
**A.** > 60.9 µM

**Q.** What about the TGI [9] of the same compound?
**A.** > 100 µM

**Q.** What about the TGI [10] of the same compound?
**A.** 45.6 µM

**Q.** Which TGI [1] does the source give for `COc1ccc(SCc2cc(OC)ccc2OC)cc1` here?
**A.** > 100 µM

**Q.** What about the TGI [2] of the same compound?
**A.** > 100 µM

**Q.** What about the TGI [3] of the same compound?
**A.** > 100 µM

**Q.** What about the TGI [4] of the same compound?
**A.** > 100 µM

**Q.** What about the TGI [5] of the same compound?
**A.** > 100 µM

**Q.** And the TGI [6]?
**A.** > 100 µM

**Q.** And the TGI [7]?
**A.** > 71.8 µM

**Q.** And the TGI [8]?
**A.** 37 µM

**Q.** What about the TGI [9] of the same compound?
**A.** > 100 µM

**Q.** And the TGI [10]?
**A.** > 100 µM

**Q.** With `O=S1(=O)OCCOS(=O)(=O)C1(F)Cc1ccccc1` as the compound, how does the TGI [1] read?
**A.** > 100 µM

**Q.** And the TGI [2]?
**A.** > 100 µM

**Q.** What about the TGI [3] of the same compound?
**A.** > 100 µM

**Q.** What about the TGI [4] of the same compound?
**A.** > 100 µM

**Q.** What about the TGI [5] of the same compound?
**A.** > 100 µM

**Q.** What about the TGI [6] of the same compound?
**A.** > 100 µM

**Q.** What about the TGI [7] of the same compound?
**A.** > 100 µM

**Q.** And the TGI [8]?
**A.** > 100 µM

**Q.** And the TGI [9]?
**A.** > 100 µM

**Q.** And the TGI [10]?
**A.** > 100 µM
